This is an account of results in patent publication US5905073A, “Use of 2-hydroxy-5-phenylazobenzoic acid derivatives as colon cancer chemopreventative and chemotherapeutic agents” (priority 1996, dated 1999).

Data set [1] has as its system LS174T cells. The data set is described as follows: Proliferation of LS174T colon cancer cells, Coulter Counter cell count. It is filed as cell-based, human. As to the method:
(§1) Cells were grown in Dulbeccos Modified Eagle medium supplemented with 10% calf serum in an atmosphere of 5% CO2 at 37° C. For growth experiments, cells were seeded into 24-well tissue culture dishes (2 cm^2 /well) at a density of 20,000 cells/well and allowed to attach for 12 hours. The growth medium was then changed and replaced with fresh media containing the test drugs.
(§2) The test drugs were dissolved in tissue culture media at the desired concentration and added to individual wells. To determine the number of cells per well, media was removed and the cells washed with phosphate buffered saline solution. The cells were then incubated 15 minutes with trypsin-EDTA solution until detached. The detached cells were then removed from the wells and counted using a Coulter Counter (Model ZBI).
(§3) The cell numbers shown in Table I are the average of triplicate culture wells.

In data set [2] the test system is HT-29 cells. In words: Dose response growth inhibition of HT-29 cells, Sulforhodamine B dye binding assay. It is filed as cell-based, human. Particulars: Homo sapiens. The method, then: (§4) For dose response studies a sensitive dye binding assay was adapted which allows simultaneous assay of multiple agents and doses in 96-well plates. Cells were plated and allowed to adhere for 24 hours prior to addition of the study drug. Cell densities were then determined 4 days later by fixation of the wells and staining with Sulforhodamine B dye.
In general terms: In SRB staining, fixed cells bind dye roughly in proportion to their protein.

Data set [3] has as its system LoVo cells. In words: Growth inhibition of LoVo colon cancer cells. Type of data set: cell-based. Particulars: Homo sapiens, Table IV, read-out: IC50 for inhibition of human colon cancer cell proliferation. The method, then:
as §4

The test system of data set [4] is HRT-18 cells. The data set is described as follows: Growth inhibition of HRT-18 colon cancer cells. Type of data set: cell-based. Particulars: Homo sapiens; HRT-18, Table IV; read-out: IC50 for inhibition of human colon cancer cell proliferation. The method, then: as §4
The subject of data set [5] is human colon cancer cells. The data set is described as follows: Colon cancer cell proliferation in vitro, comparative statements. Type of data set: cell-based. As to the method:
as §1, §2, §3
For dose response studies a sensitive dye binding assay was adapted which allows simultaneous assay of multiple agents and doses in 96-well plates. Cells were plated and allowed to adhere for 24 hours prior to addition of the study drug. Cell densities were then determined 4 days later by fixation of the wells and staining with Sulforhodamine B dye. Optical density of the stained cultures was then determined using a 96-well plate reader at 495 nm (Skehan et al. (1990) J. Natl. Cancer Inst. 82:1107-1112).
Two such oxidation products, gentisic acid (Dull et al. (1987) Biochem. Pharmacol. 36:2467-2472) and 5-nitro-salicylate (Laffafian et al. (1991) Biochem. Pharmacol. 42:1869-1874) have been elucidated.

For data set [6] the following is noted: cited from earlier work.
Data set [7] deals with ulcerative colitis. Particulars: active and quiescent ulcerative colitis; cited from earlier work.

“Also recorded” adds a separate entry of the source. Read-outs that look alike come from different tables or passages of the source.

`O=C(O)CCNC(=O)c1ccc(/N=N/c2ccc(O)c(C(=O)O)c2)cc1` [Balsalazide]: the “Cell No. on Day 10” value in data set [1] (10 mM, average of triplicate wells) is reported as 24925. Further, in data set [1] (Homo sapiens, 240 h, read-out: % of Control Cells), the activity at 10000 µM was determined as 3.51%. For the same molecule, the IC50 in data set [2] (HT-29, Table IV, read-out: IC50 for inhibition of human colon cancer cell proliferation) was found to be 5.71 mM; in data set [2] (HT-29, text (FIG. 5), read-out: IC50), 5.7 mM; in data set [3] it was 5 mM; in data set [4], 3.88 mM. Also, the “inhibition of colon cancer cell growth (in words)” value in data set [5] is reported as “potently inhibitory; also recorded: greater inhibitory response at lower concentrations than did 5-ASA”. The “relative sensitivity of LS174T and HT-29 cells” value in data set [5] (LS174T vs HT-29) is recorded as “identical between both cell types”. Further, the absorption entry in data set [6] (oral balsalazide) is “virtually unabsorbed through the upper GI tract”. For the same molecule, the “drug reaching the colon intact” value in data set [6] (oral) was 99%. Besides, the “anti-inflammatory activity in ulcerative colitis patients” value in data set [7] is “possesses anti-inflammatory activity”.
